Toxic doses and inconclusive results are not listed. Cut-off read from the data, not from the text of the source: active = T/C of 150% or more; inactive = T/C below 125%.
System: L1210 leukemia ip in BDF1 mice, survival T/C
Assay: NCI In Vivo Anticancer Drug Screen. Data for tumor model L1210 Leukemia (intraperitoneal) in B6D2F1 (BDF1) mice
Settings: endpoint: mean survival time, higher = longer survival
Procedure, shortened: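 Tumor was transplanted into mice, which were then dosed with test compound or vehicle alone. Survival was recorded for each group, and the treated figure was expressed relative to the control figure.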

[1] = dose: 50.0 mg/kg/injection, schedule: Q01DX009 (ip), vehicle: saline
[2] = dose: 100.0 mg/kg/injection, schedule: Q01DX009 (ip), vehicle: saline
[3] = dose: 200.0 mg/kg/injection, schedule: Q01DX009 (ip), vehicle: saline
[4] = dose: 100.0 mg/kg/injection, schedule: Q04DX003 (ip), vehicle: Klucel (hydroxypropylcellulose) (HPC)
[5] = dose: 200.0 mg/kg/injection, schedule: Q04DX003 (ip), vehicle: Klucel (hydroxypropylcellulose) (HPC)
[6] = dose: 400.0 mg/kg/injection, schedule: Q04DX003 (ip), vehicle: Klucel (hydroxypropylcellulose) (HPC)
[7] = dose: 100.0 mg/kg/injection, schedule: Q04DX003 (ip), vehicle: saline with Tween-80
[8] = dose: 200.0 mg/kg/injection, schedule: Q04DX003 (ip), vehicle: saline with Tween-80
[9] = dose: 400.0 mg/kg/injection, schedule: Q04DX003 (ip), vehicle: saline with Tween-80
[10] = dose: 100.0 mg/kg/injection, schedule: Q04DX003 (ip), vehicle: saline
[11] = dose: 200.0 mg/kg/injection, schedule: Q04DX003 (ip), vehicle: saline
[12] = dose: 400.0 mg/kg/injection, schedule: Q04DX003 (ip), vehicle: saline
[13] = dose: 400.0 mg/kg/injection, schedule: Q01DX009 (ip), vehicle: saline
[14] = dose: 100.0 mg/kg/injection, schedule: Q01DX001 (ip), vehicle: carboxymethylcellulose (CMC)
[15] = dose: 200.0 mg/kg/injection, schedule: Q01DX001 (ip), vehicle: carboxymethylcellulose (CMC)
[16] = dose: 400.0 mg/kg/injection, schedule: Q01DX001 (ip), vehicle: carboxymethylcellulose (CMC)

Measured: T/C

Nc1ccn(Cc2cccc3ccccc23)c(=O)n1
inactive: dose: 100.0 mg/kg/injection, schedule: Q04DX003 (ip), vehicle: gum acacia 93 % of control | dose: 200.0 mg/kg/injection, schedule: Q04DX003 (ip), vehicle: gum acacia 90 % of control | dose: 400.0 mg/kg/injection, schedule: Q04DX003 (ip), vehicle: gum acacia 90 % of control

COc1cc(CC(C)N)cc(OC)c1OC (stereo not given)
inactive: [1] 110 % of control | [2] 108 % of control | [3] 103 % of control

C=C(Br)CNC(=O)c1ccccc1
inactive: dose: 12.5 mg/kg/injection, schedule: Q01DX009 (ip), vehicle: Klucel (hydroxypropylcellulose) (HPC) 97 % of control | dose: 25.0 mg/kg/injection, schedule: Q01DX009 (ip), vehicle: Klucel (hydroxypropylcellulose) (HPC) 108 % of control | dose: 50.0 mg/kg/injection, schedule: Q01DX009 (ip), vehicle: Klucel (hydroxypropylcellulose) (HPC) 90 % of control | dose: 100.0 mg/kg/injection, schedule: Q01DX001 (ip), vehicle: Klucel (hydroxypropylcellulose) (HPC) 101 % of control | dose: 200.0 mg/kg/injection, schedule: Q01DX001 (ip), vehicle: Klucel (hydroxypropylcellulose) (HPC) 106 % of control

O=C(c1cccnc1)c1cccnc1
inactive: [4] 91 % of control | [5] 100 % of control | [6] 97 % of control

CN(C)C1=CC(=N/S(=O)(=O)c2ccccc2)/C(N(C)C)=CC/1=N/S(=O)(=O)c1ccccc1
inactive: [7] 88 % of control | [8] 90 % of control | [9] 87 % of control

CCNCC
inactive: [10] 93 % of control | [11] 101 % of control | [12] 101 % of control

O=C(N/N=C/c1ccc(Cl)cc1)C(c1ccccc1)N1CCCCC1 (stereo not given)
inactive: dose: 100.0 mg/kg/injection, schedule: Q01DX001 (ip), vehicle: other 96 % of control | dose: 200.0 mg/kg/injection, schedule: Q01DX001 (ip), vehicle: other 87 % of control | dose: 400.0 mg/kg/injection, schedule: Q01DX001 (ip), vehicle: other 93 % of control

CCC1N=C(N)N=C(N)N1c1ccc(Cl)cc1 (stereo not given)
inactive: dose: 75.0 mg/kg/injection, schedule: Q01DX001 (ip), vehicle: saline 100 % of control | dose: 150.0 mg/kg/injection, schedule: Q01DX001 (ip), vehicle: saline 98 % of control

Cc1c2ccccc2c(C)c2c1cc(CO)c1ccccc12
inactive: dose: 100.0 mg/kg/injection, schedule: Q04DX002 (ip), vehicle: Klucel (hydroxypropylcellulose) (HPC) 97 % of control | dose: 200.0 mg/kg/injection, schedule: Q04DX002 (ip), vehicle: Klucel (hydroxypropylcellulose) (HPC) 104 % of control | dose: 400.0 mg/kg/injection, schedule: Q04DX002 (ip), vehicle: Klucel (hydroxypropylcellulose) (HPC) 89 % of control

O=N[O-].[Co].[N-]=C=S.[NH2-].[NH2-].[NH2-].[NH2-]
inactive: dose: 6.25 mg/kg/injection, schedule: Q01DX009 (ip), vehicle: saline 106 % of control | dose: 12.5 mg/kg/injection, schedule: Q01DX009 (ip), vehicle: saline 114 % of control | dose: 12.5 mg/kg/injection, schedule: Q04DX003 (ip), vehicle: saline with Tween-80 96 % of control | dose: 13.2 mg/kg/injection, schedule: Q01DX009 (ip), vehicle: saline 104 % of control | dose: 16.0 mg/kg/injection, schedule: Q01DX009 (ip), vehicle: saline 104 % of control | dose: 20.0 mg/kg/injection, schedule: Q01DX009 (ip), vehicle: saline 113 % of control | dose: 25.0 mg/kg/injection, schedule: Q01DX009 (ip), vehicle: saline 104 % of control | dose: 25.0 mg/kg/injection, schedule: Q04DX003 (ip), vehicle: saline with Tween-80 96 % of control | dose: 30.0 mg/kg/injection, schedule: Q01DX009 (ip), vehicle: saline 113 % of control | dose: 35.0 mg/kg/injection, schedule: Q01DX009 (ip), vehicle: saline 104 % of control | [1] 116 % of control | dose: 50.0 mg/kg/injection, schedule: Q04DX003 (ip), vehicle: saline with Tween-80 88 % of control | [7] 105 % of control | [8] 90 % of control

COc1cc(OC)c(/C=C/c2cnc3ccccc3n2)c(OC)c1
inactive: dose: 3.13 mg/kg/injection, schedule: Q04DX002 (ip), vehicle: saline with Tween-80 104 % of control | dose: 6.25 mg/kg/injection, schedule: Q04DX002 (ip), vehicle: saline with Tween-80 95 % of control | dose: 12.5 mg/kg/injection, schedule: Q04DX002 (ip), vehicle: saline with Tween-80 88 % of control | dose: 50.0 mg/kg/injection, schedule: Q04DX002 (ip), vehicle: saline with Tween-80 90 % of control

COC(=O)c1ccc2cc(C(=O)OC)ccc2c1
inactive: dose: 50.0 mg/kg/injection, schedule: Q04DX003 (ip), vehicle: Klucel (hydroxypropylcellulose) (HPC) 105 % of control | [4] 105 % of control | [5] 101 % of control

CC(=O)C(N)CCC(=O)O (stereo not given)
inactive: [2] 106 % of control | [10] 97 % of control | [3] 101 % of control | [11] 97 % of control | [13] 95 % of control | [12] 94 % of control

C=CCC(CC=C)(C(N)=O)c1ccc(OC)cc1
inactive: [14] 100 % of control | [15] 97 % of control | [16] 111 % of control

CC[n+]1ccccc1CCC(=O)Nc1ccccc1
inactive: dose: 25.0 mg/kg/injection, schedule: Q04DX003 (ip), vehicle: saline 97 % of control | dose: 50.0 mg/kg/injection, schedule: Q04DX003 (ip), vehicle: saline 92 % of control | [10] 95 % of control

NC(=O)n1ccc(CC(O)(C(F)(F)F)C(F)(F)F)n1
inactive: dose: 100.0 mg/kg/injection, schedule: Q01DX001 (ip), vehicle: saline with Tween-80 96 % of control | dose: 200.0 mg/kg/injection, schedule: Q01DX001 (ip), vehicle: saline with Tween-80 96 % of control | dose: 400.0 mg/kg/injection, schedule: Q01DX001 (ip), vehicle: saline with Tween-80 96 % of control

CC1c2c(-c3ccccc3)oc(-c3ccccc3)c2C(C)C(Br)C1Br (stereo not given)
inactive: dose: 100.0 mg/kg/injection, schedule: Q01DX009 (ip), vehicle: Klucel (hydroxypropylcellulose) (HPC) 121 % of control | [4] 103 % of control | dose: 200.0 mg/kg/injection, schedule: Q01DX009 (ip), vehicle: Klucel (hydroxypropylcellulose) (HPC) 104 % of control | [5] 90 % of control | dose: 400.0 mg/kg/injection, schedule: Q01DX009 (ip), vehicle: Klucel (hydroxypropylcellulose) (HPC) 109 % of control | [6] 92 % of control

C=CCNC(=O)C1C2C=CC(C2)C1C(=O)O (stereo not given)
inactive: [7] 98 % of control | [8] 104 % of control | [9] 98 % of control

CN(CC#N)/N=N/c1nc[nH]c1C(N)=O
inactive: dose: 50.0 mg/kg/injection, schedule: Q01DX Z (ip), vehicle: carboxymethylcellulose (CMC) 118 % of control | dose: 75.0 mg/kg/injection, schedule: Q01DX Z (ip), vehicle: carboxymethylcellulose (CMC) 107 % of control

CC(=O)Nc1cc2c(cc1Br)-c1ccccc1C2O (stereo not given)
inactive: [14] 98 % of control | dose: 110.0 mg/kg/injection, schedule: Q01DX Z (ip), vehicle: other 98 % of control | dose: 166.0 mg/kg/injection, schedule: Q01DX Z (ip), vehicle: other 101 % of control | [15] 97 % of control | dose: 250.0 mg/kg/injection, schedule: Q01DX Z (ip), vehicle: other 98 % of control | dose: 296.0 mg/kg/injection, schedule: Q01DX Z (ip), vehicle: saline 103 % of control | dose: 444.0 mg/kg/injection, schedule: Q01DX Z (ip), vehicle: saline 105 % of control | dose: 560.0 mg/kg/injection, schedule: Q01DX Z (ip), vehicle: other 103 % of control | dose: 666.0 mg/kg/injection, schedule: Q01DX Z (ip), vehicle: saline 106 % of control

CC(O)CNC(=O)C(C)(C)O (stereo not given)
inactive: [2] 96 % of control | [3] 96 % of control | [13] 94 % of control

C=C(C)C(O)CC(C)C (stereo not given)
inactive: [14] 100 % of control | [15] 100 % of control | [16] 94 % of control

Reference: PubChem BioAssay AID248 (DTP/NCI, 2004)
